Source: PubChem BioAssay AID328 (DTP/NCI, 2004)
Values joined by “and” are separate entries in the source; they are usually repeats but may differ in a detail not shown here. Equal entries are not always repeated. Toxic doses and inconclusive results are not listed. The calls were made as follows: active = survival T/C of 150% or more; inactive = T/C below 125% in these data.

Tested on: BDF1 mice, P388 leukemia ip, median survival T/C
Assay: NCI In Vivo Anticancer Drug Screen. Data for tumor model P388 Leukemia (intraperitoneal) in B6D2F1 (BDF1) mice
Settings: endpoint: median survival time, higher = longer survival
Method in brief: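 T/C = treated-group survival ÷ vehicle-control survival; tumour transplanted into mice before dosing.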

[1] = dose: 50.0 mg/kg/injection, schedule: Q01DX009 (ip), vehicle: saline with Tween-80
[2] = dose: 50.0 mg/kg/injection, schedule: Q04DX003 (ip), vehicle: saline with Tween-80
[3] = dose: 100.0 mg/kg/injection, schedule: Q01DX009 (ip), vehicle: saline with Tween-80
[4] = dose: 100.0 mg/kg/injection, schedule: Q04DX003 (ip), vehicle: saline with Tween-80
[5] = dose: 200.0 mg/kg/injection, schedule: Q01DX009 (ip), vehicle: saline with Tween-80
[6] = dose: 200.0 mg/kg/injection, schedule: Q04DX003 (ip), vehicle: saline with Tween-80
[7] = dose: 25.0 mg/kg/injection, schedule: Q04DX003 (ip), vehicle: saline with Tween-80
[8] = dose: 400.0 mg/kg/injection, schedule: Q04DX003 (ip), vehicle: saline with Tween-80
[9] = dose: 50.0 mg/kg/injection, schedule: Q01DX009 (ip), vehicle: Klucel (hydroxypropylcellulose) (HPC)
[10] = dose: 25.0 mg/kg/injection, schedule: Q01DX009 (ip), vehicle: saline with Tween-80

Measured: T/C

C#CC1(OCC(O)CO)CCCCC1 (stereo not drawn)
inactive: dose: 3.12 mg/kg/injection, schedule: Q01DX009 (ip), vehicle: water 107 % of control | dose: 6.25 mg/kg/injection, schedule: Q01DX009 (ip), vehicle: water 110 % of control | dose: 12.5 mg/kg/injection, schedule: Q01DX009 (ip), vehicle: water 100 % of control | dose: 25.0 mg/kg/injection, schedule: Q01DX009 (ip), vehicle: water 110 % of control | dose: 50.0 mg/kg/injection, schedule: Q01DX009 (ip), vehicle: water 94 % of control | dose: 100.0 mg/kg/injection, schedule: Q01DX009 (ip), vehicle: water 103 % of control | dose: 200.0 mg/kg/injection, schedule: Q01DX009 (ip), vehicle: water 103 % of control | dose: 400.0 mg/kg/injection, schedule: Q01DX009 (ip), vehicle: water 118 % of control

O=C1c2ccccc2C(=O)N1CC(O)CCl (stereo not drawn)
inactive: [1] 104 % of control | [2] 100 % of control | [3] 112 % of control | [4] 104 % of control | [5] 88 % of control | [6] 108 % of control

CCN(CC)c1c(C)nnc2c(-c3ccccc3)cnn12
inactive: [2] 108 % of control | [4] 100 % of control | [6] 104 % of control

Nc1cc(Cl)cc(Cl)c1C(=O)O
inactive: dose: 100.0 mg/kg/injection, schedule: Q01DX001 (ip), vehicle: other 95 % of control | dose: 200.0 mg/kg/injection, schedule: Q01DX001 (ip), vehicle: other 100 % of control | dose: 400.0 mg/kg/injection, schedule: Q01DX001 (ip), vehicle: other 95 % of control

CCCCOc1cc(C(=O)O)ccc1[N+](=O)[O-]
inactive: [7] 100 % of control | [2] 100 % of control | [4] 104 % of control

CC1(C)OC1[Si](C)(C)C (stereo not drawn)
inactive: [1] 107 % of control | [3] 121 % of control | [5] 111 % of control

COC(=O)C1Cc2c([nH]c3ccccc23)CN1 (stereo not drawn)
inactive: dose: 10.0 mg/kg/injection, schedule: Q01DX009 (ip), vehicle: saline 116 % of control | dose: 10.0 mg/kg/injection, schedule: Q04DX003 (ip), vehicle: saline 95 % of control | dose: 20.0 mg/kg/injection, schedule: Q01DX009 (ip), vehicle: saline 100 % of control | dose: 20.0 mg/kg/injection, schedule: Q04DX003 (ip), vehicle: saline 109 % of control | dose: 40.0 mg/kg/injection, schedule: Q01DX009 (ip), vehicle: saline 112 % of control | dose: 40.0 mg/kg/injection, schedule: Q04DX003 (ip), vehicle: saline 95 % of control

COP(=O)(OC)C(OC(=O)C(C)(C)SC(C)=S)=C(C)C
inactive: [4] 110 % of control | [6] 115 % of control | [8] 115 % of control

C/C(=C/B1OCCO1)CCl
inactive: dose: 100.0 mg/kg/injection, schedule: Q04DX003 (ip), vehicle: saline sonified 105 % of control | dose: 200.0 mg/kg/injection, schedule: Q04DX003 (ip), vehicle: saline sonified 100 % of control | dose: 400.0 mg/kg/injection, schedule: Q04DX003 (ip), vehicle: saline sonified 110 % of control

COc1ccc2[nH]c(C)c(SC)c2c1
inactive: dose: 50.0 mg/kg/injection, schedule: Q04DX002 (ip), vehicle: saline with Tween-80 98 % of control | dose: 100.0 mg/kg/injection, schedule: Q04DX002 (ip), vehicle: saline with Tween-80 100 % of control | dose: 200.0 mg/kg/injection, schedule: Q04DX002 (ip), vehicle: saline with Tween-80 89 % of control

COc1ccc2c(c1)CC[C@@H]1[C@@H]2CC[C@]2(C)/C(=N\O)CC[C@@H]12
inactive: [3] 104 % of control | [5] 109 % of control | dose: 400.0 mg/kg/injection, schedule: Q01DX009 (ip), vehicle: saline with Tween-80 90 % of control

CO[C@H]1CC=C2CCN3CCCc4cc5c(cc4[C@]23C1)OCO5
inactive: dose: 10.0 mg/kg/injection, schedule: Q01DX009 (ip), vehicle: alcohol 100 % of control | dose: 20.0 mg/kg/injection, schedule: Q01DX009 (ip), vehicle: alcohol 100 % of control

C=CC(C#N)(C=C)C=C
inactive: [1] 104 % of control

CCOC(=S)SCC(=O)Nc1ccc(S(N)(=O)=O)cc1
inactive: dose: 15.0 mg/kg/injection, schedule: Q01DX009 (ip), vehicle: saline with Tween-80 95 % of control | dose: 30.0 mg/kg/injection, schedule: Q01DX009 (ip), vehicle: saline with Tween-80 104 % of control | dose: 60.0 mg/kg/injection, schedule: Q01DX009 (ip), vehicle: saline with Tween-80 113 % of control

O=C1NC(=O)C2(CCCCC2)N1
inactive: dose: 25.0 mg/kg/injection, schedule: Q01DX009 (ip), vehicle: Klucel (hydroxypropylcellulose) (HPC) 91 % of control | dose: 25.0 mg/kg/injection, schedule: Q04DX003 (ip), vehicle: Klucel (hydroxypropylcellulose) (HPC) 90 % of control | [9] 100 % of control | dose: 50.0 mg/kg/injection, schedule: Q04DX003 (ip), vehicle: Klucel (hydroxypropylcellulose) (HPC) 100 % of control | dose: 100.0 mg/kg/injection, schedule: Q04DX003 (ip), vehicle: Klucel (hydroxypropylcellulose) (HPC) 104 % of control

O=C(OCCCCOC(=O)c1cccc([N+](=O)[O-])c1)c1cccc([N+](=O)[O-])c1
inactive: dose: 3.0 mg/kg/injection, schedule: Q04DX003 (ip), vehicle: saline with Tween-80 115 % of control | dose: 6.0 mg/kg/injection, schedule: Q04DX003 (ip), vehicle: saline with Tween-80 110 % of control | dose: 12.0 mg/kg/injection, schedule: Q04DX003 (ip), vehicle: saline with Tween-80 120 % of control

O=C(C=C(C(F)(F)F)C(F)(F)F)c1cccc(C(F)(F)F)c1
inactive: dose: 6.25 mg/kg/injection, schedule: Q01DX009 (ip), vehicle: saline with Tween-80 110 % of control | dose: 12.5 mg/kg/injection, schedule: Q01DX009 (ip), vehicle: saline with Tween-80 120 % of control | dose: 12.5 mg/kg/injection, schedule: Q04DX003 (ip), vehicle: saline with Tween-80 122 % of control | [10] 110 % of control | [7] 122 % of control

[NH2-].[NH2-].[NH2-].[NH2-].[NH2-].[NH2-].[Ni]
inactive: dose: 6.25 mg/kg/injection, schedule: Q01DX001 (ip), vehicle: saline 99 % of control | dose: 12.5 mg/kg/injection, schedule: Q01DX001 (ip), vehicle: saline 103 % of control

CCC(C)C(NC(=O)OCc1ccccc1)C(=O)ON1C(=O)CCC1=O (stereo not drawn)
inactive: [4] 118 % of control | [8] 109 % of control

Nc1nnc2cc(F)ccc2n1
inactive: [9] 100 % of control | dose: 100.0 mg/kg/injection, schedule: Q01DX009 (ip), vehicle: Klucel (hydroxypropylcellulose) (HPC) 112 % of control | dose: 200.0 mg/kg/injection, schedule: Q01DX009 (ip), vehicle: Klucel (hydroxypropylcellulose) (HPC) 102 % of control

CC1CCS(=O)(=O)CC1.[Cl][Hg][Cl]
inactive: dose: 0.3 mg/kg/injection, schedule: Q01DX009 (ip), vehicle: saline 95 % of control | dose: 0.6 mg/kg/injection, schedule: Q01DX009 (ip), vehicle: saline 100 % of control | dose: 1.2 mg/kg/injection, schedule: Q01DX009 (ip), vehicle: saline 95 % of control

CC(C#N)(Nc1ccccc1)c1ccccc1 (stereo not drawn)
inactive: [4] 95 % of control | [6] 100 % of control | [8] 100 % of control

COc1cc2c(cc1OC)C(c1ccc(N=Cc3ccc(Cl)c(Cl)c3)cc1)N(C(=S)Nc1cc(Cl)ccc1Cl)CC2 (stereo not drawn)
inactive: [10] 104 % of control | [1] 93 % of control and 97 % of control | [3] 95 % of control | [5] 89 % of control

CCN1C=NNc2ccc(Cl)cc2C1=O
inactive: [4] 97 % of control | [6] 97 % of control | [8] 100 % of control
